PMC5483439, “The Effect of Pungent and Tingling Compounds from Piper nigrum L. on Background K^+ Currents” (Frontiers in Pharmacology, 2017)

Tested on: mouse trigeminal neurons
Assay: Calcium imaging on primary cultured mouse trigeminal neurons
Format: cell-based
Description: Trigeminal ganglia neurons were isolated from Swiss CD-1 mice (Charles River Laboratories, Sulzfeld, Germany). All experiments involving animals were carried out in accordance with the European Union Community Council’s guidelines and approved by the competent state office of the Federal Land of Northrhine Westphalia (file number 87-51.04.2010.A180). At postnatal day 2–5, the mice were sacrificed by decapitation. The brain was removed, and both trigeminal ganglia were excised. The ganglia were washed in PBS+/+ (Invitrogen, Karlsruhe, Germany) and collected in Leibovitz Medium (L15, Invitrogen) on ice. The ganglia were transferred to Dulbecco’s modified essential medium (DMEM) containing 0.025% collagenase (type IA, Sigma–Aldrich). The minced ganglia were incubated for 45 min in a humidified atmosphere (37°C, 95% humidity, 6% CO2) before trituration. The cell suspension was centrifuged at 1000 rpm for 4 min at room temperature and the pellet was resuspended in F-12 medium (Invitrogen; 31331-D-MEM/F-12, GlutaMax^TM) supplemented with 10% fetal bovine serum (FBS^TM; Invitrogen), 200 U/mL penicillin and 200 U/mL streptomycin. The cell suspension (50 μL) was then plated on poly L-lysine (0.01%) coated glass coverslips (30 mm, Sarstedt, Nümbrecht, Germany), placed in cell culture dishes (35 mm) and kept in a humidified atmosphere (37°C, 95% humidity, 6% CO2) for 1 h. Subsequently, F-12 medium (2 mL) supplemented with FBS (10%), 200 U/mL penicillin and 200 U/mL streptomycin was added to each dish. The cells were kept in an incubator (37°C, 95% humidity, 6% CO2) until use. The trigeminal ganglion neurons were incubated with the Ca^2+-sensitive reporter dye Fura-2/AM (Invitrogen, final concentration: 3 μM) 30–45 min before starting the experiment. […] The emitted light (510 nm) was detected with a 12-bit 1376 × 1032-pixel charge-coupled device camera (F-View II, Olympus), and Cell® imaging software (Olympus). The changes in intracellular calcium levels were calculated as the intensity ratio of f340/f380 [(E(510) at 340 nm illumination)/(E(510) at 380 nm illumination)]. […]

O=C(/C=C/C=C/c1ccc2c(c1)OCO2)N1CCCCC1 [1a, piperine]
trigeminal neurons showing a calcium response (100 μM): 68 out of 619 | piperine-responsive neurons still responsive in the presence of TRP antagonists (100 μM piperine with capsazepine 5 μM and HC-030031 20 μM, 25 of 37 neurons): 68% | piperine-responsive neurons also capsaicin-responsive (100 μM piperine, 10 μM capsaicin, 35 of 68 neurons): 51%
